Molecular target: T1, NLRP3 (Homo sapiens, UniProt Q96P20)
T1 construct: Measurement of IL-1β Production in PMA-Differentiated THP-1 Cells; host or cells: THP-1 cells, PMA-differentiated
Assay: Measurement of IL-1β production in PMA-differentiated THP-1 cells (NLRP3 hIL1β)
Type: cell-based
Procedure: Measurement of IL-1β Production in PMA-Differentiated THP-1 Cells
THP-1 cells were purchased from the American Type Culture Collection and sub-cultured according to instructions from the supplier. Prior to experiments, cells were cultured in RPMI 1640 containing 10% heat inactivated FBS, penicillin (100 units/ml) and streptomycin (100 μg/ml), and maintained in log phase prior to experimental setup. Prior to the experiment THP-1 were treated with PMA (Phorbol 12-myristate 13-acetate) (10 μg/ml) for 24 hours. The day of the experiment the media was removed and attaching cells were treated with trypsin for 2 minutes, cells were then collected, washed with PBS (phosphate buffer saline), spin down, resuspended in 2% heat inactivated FBS with RPMI at a concentration of 1×10^6 cells/ml, and 100 μl was plated in a 96 well plate. Compounds were dissolved in dimethyl sulfoxide (DMSO) and added to the culture medium to achieve desired concentration (e.g. 100, 30, 10, 3, 1, 0.3 or 0.1 μM). Cells were incubated with compounds for 4 hours. Cell free supernatant was collected and the production of IL-1β was evaluated by ELISA. A vehicle only control was run concurrently with each experiment. Final DMSO concentration was 1%.
Measurement of IL-1β Production in PMA-Differentiated THP-1 Cells (Alternative Procedure)
THP-1 cells were purchased from the American Type Culture Collection and sub-cultured according to instructions from the supplier. Prior to experiments, cells were cultured in RPMI 1640 containing 10% heat inactivated FBS, penicillin (100 units/ml), streptomycin (100 μg/ml), HEPES (10 mM) and sodium pyruvate (1 mM) and maintained in log phase prior to experimental setup. Prior to the experiment, THP-1 cells were treated with PMA (Phorbol 12-myristate 13-acetate) (20 μg/ml) overnight. The day of the experiment, the media was removed and attached cells were treated with trypsin for 2 minutes, cells were then collected, washed with PBS (phosphate buffer saline), pelleted by centrifugation and resuspended in 2% heat inactivated FBS with RPMI at a concentration of 50,000 cells/well in a 384 well plate. Cell free supernatant was collected and the production of IL-1β was evaluated by ELISA. Compounds were dissolved in dimethyl sulfoxide (DMSO) and added to the culture medium to achieve desired concentration (e.g. 100, 30, 10, 3, 1, 0.3 or 0.1 μM). Cells were incubated with compounds for 2 hours. A vehicle only control was run concurrently with each experiment. Final DMSO concentration was 1%.
Measurement of IL-1β Production—hTRF Protocol (Second Alternative Procedure)
Serial dilutions of compounds in DMSO were added to low volume 384 well plates at 100 nl/well using an ECHO 550 acoustic dispenser (Labcyte) to achieve final starting concentration of 10 μM in assay.
THP-1 cells in RPMI (Gibco, 11875) media with 10% FBS at a density of 1×10^6 cell/ml in a T175 flask were treated with a final concentration of phorbol 12-myristate 13-acetate (PMA) (Sigma, P1585) of 50 ng/ml overnight at 37° C. at 5% CO2 for differentiation. Cells were harvested the next day after rinsing well wth dPBS using 0.5% trypsin. A cell solution was prepared of 1×10^6 cells/ml for 50,000 cells in 50 μl/well in RPMI media with 2% FBS. Cells were plated using a multichannel pipette onto the compound dilutions in Greiner, 384 well, black clear bottom tissue culture treated plates (781090). The plates were incubated in 37° C. incubator at 5% CO2 for 2 hours.
After the 2 hour incubation, the cell plates were spun in the centrifuge for 5 minutes at 1200 rpm. Using the Felix (CyBio), 8 μl of the supernatant was transferred to 384 well, low volume, white proxy plates. (Perkin Elmer, 6008230). A human IL1beta hTRF kit was used to analyze the supernatant (CISBIO, 62HIL1BPEG). The kit instructions were followed for preparing the IL1Beta standard curve and then the antibodies from the kit were diluted 1:40 rather than 1:20 as kit instructed. […]

T1 sequence (Q96P20 whole entry): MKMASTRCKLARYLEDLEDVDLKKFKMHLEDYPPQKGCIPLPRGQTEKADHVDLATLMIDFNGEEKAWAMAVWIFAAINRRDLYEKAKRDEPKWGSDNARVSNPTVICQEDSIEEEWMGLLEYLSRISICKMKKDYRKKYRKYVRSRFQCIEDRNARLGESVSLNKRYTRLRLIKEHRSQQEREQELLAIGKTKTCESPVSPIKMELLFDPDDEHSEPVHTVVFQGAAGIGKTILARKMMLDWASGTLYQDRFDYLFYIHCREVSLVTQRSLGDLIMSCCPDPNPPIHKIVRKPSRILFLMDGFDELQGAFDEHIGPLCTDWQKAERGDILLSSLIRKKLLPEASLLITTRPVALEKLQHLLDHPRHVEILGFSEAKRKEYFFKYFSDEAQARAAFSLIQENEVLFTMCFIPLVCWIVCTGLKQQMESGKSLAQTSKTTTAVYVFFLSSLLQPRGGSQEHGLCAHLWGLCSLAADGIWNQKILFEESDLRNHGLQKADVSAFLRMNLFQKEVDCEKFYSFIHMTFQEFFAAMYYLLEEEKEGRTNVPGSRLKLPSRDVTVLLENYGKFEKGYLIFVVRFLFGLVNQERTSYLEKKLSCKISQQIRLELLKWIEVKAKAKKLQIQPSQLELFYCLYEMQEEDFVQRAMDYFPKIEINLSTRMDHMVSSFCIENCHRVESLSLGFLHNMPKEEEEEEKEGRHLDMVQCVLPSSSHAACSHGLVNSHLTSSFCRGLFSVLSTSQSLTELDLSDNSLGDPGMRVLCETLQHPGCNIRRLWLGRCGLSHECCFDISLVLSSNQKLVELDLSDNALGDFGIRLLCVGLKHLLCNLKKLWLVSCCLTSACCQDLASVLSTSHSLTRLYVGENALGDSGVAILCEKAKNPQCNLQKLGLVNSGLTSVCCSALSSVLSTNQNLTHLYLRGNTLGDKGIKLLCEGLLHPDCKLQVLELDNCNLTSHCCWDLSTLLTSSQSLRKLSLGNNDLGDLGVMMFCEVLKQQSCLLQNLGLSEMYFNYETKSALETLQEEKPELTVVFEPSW

Compound	EC50 [nM]
Nc1nc(N2CCCOCC2)c2ncc(-c3cc[nH]n3)cc2n1 [Example 21]	700
C[C@@H](O)CNc1cc(N)nc2cc(-c3ccn[nH]3)cnc12 [Example 25]	80
Nc1nc(NCCO)c2ncc(-c3cc[nH]n3)cc2n1 [Example 20]	1900
Nc1cc(N[C@H]2CC[C@H](O)C2)c2ncc(-c3ccn[nH]3)cc2n1 [Example 4, (1S,3S)-3-((2-amino-7-(1H-pyrazol-5-yl)-1,5-naphthyridin-4-yl)amino)cyclopentan-1-ol]	3500
Nc1cc(N[C@@H]2CC[C@@H](O)C2)c2ncc(-c3ccn[nH]3)cc2n1 [Example 26]	590
Nc1cc(N[C@@H]2CCOC2)c2ncc(-c3ccn[nH]3)cc2n1 [Example 14]	2600
Nc1cc(NCc2cccnn2)c2ccc(-c3cc[nH]n3)nc2n1 [Example 9]	2000
Nc1cc(NCCCO)c2cnc(-c3cc[nH]n3)cc2n1 [Example 11]	1700
Nc1cc(NCc2cccnn2)c2ncc(-c3ccn[nH]3)cc2n1 [Example 29]	280
Nc1nc(NCCc2ccccn2)c2ncc(-c3cc[nH]n3)cc2n1 [Example 19]	690
Nc1nc(NCCCO)c2ncc(-c3cc[nH]n3)cc2n1 [Example 17]	830
Nc1cc(N[C@H]2CCOC2)c2ccc(-c3cc[nH]n3)nc2n1 [Example 10]	930
Nc1cc(N[C@H]2CC[C@H](O)C2)c2ccc(-c3cc[nH]n3)nc2n1 [Example 8]	1600
Nc1cc(NCCO)c2ncc(-c3ccn[nH]3)cc2n1 [Example 3, 2-((2-amino-7-(1H-pyrazol-3-yl)-1,5-naphthyridin-4-yl)amino)ethan-1-ol]	310
Nc1cc(NCCCO)c2ccc(-c3cc[nH]n3)nc2n1 [Example 1, 3-((2-amino-7-(1H-pyrazol-3-yl)-1,8-naphthyridin-4-yl)amino)propan-1-ol]	1000
Nc1cc(NCCCO)c2ncc(-c3ccn[nH]3)cc2n1 [Example 16]	350
Nc1cc(NCc2cc[nH]n2)c2ncc(-c3ccn[nH]3)cc2n1 [Example 15]	280
Nc1nc(N[C@@H]2CCOC2)c2ncc(-c3cc[nH]n3)cc2n1 [Example 6, (R)-7-(1H-pyrazol-3-yl)-N4-(tetrahydrofuran-3-yl)pyrido[3,2-d]pyrimidine-2,4-diamine]	3600
Nc1cc(N[C@H]2C[C@H](O)C2)c2ncc(-c3ccn[nH]3)cc2n1 [Example 28]	140
Nc1cc(N[C@H]2CC[C@H](O)C2)c2cnc(-c3ccn[nH]3)cc2n1 [Example 2, (1S,3S)-3-((2-amino-7-(1H-pyrazol-5-yl)-1,6-naphthyridin-4-yl)amino)cyclopentan-1-ol]	17000
C[C@H](O)CNc1cc(N)nc2cc(-c3ccn[nH]3)cnc12 [Example 24]	310
Nc1nc(NCc2cncnc2)c2ncc(-c3cc[nH]n3)cc2n1 [Example 18]	2000
Nc1cc(N[C@H]2CCOC2)c2cnc(-c3cc[nH]n3)cc2n1 [Example 12]	1700
Nc1cc(-c2cc[nH]n2)c2ncc(-c3ccn[nH]3)cc2n1 [Example 5, 4-(1H-pyrazol-3-yl)-7-(1H-pyrazol-5-yl)-1,5-naphthyridin-2-amine]	860
Nc1nc(N[C@H]2CC[C@H](O)C2)c2ccc(-c3ccn[nH]3)nc2n1 [Example 7, (1S,3 S)-3-((2-amino-7-(1H-pyrazol-5-yl)pyrido[2,3-d]pyrimidin-4-yl)amino)cyclopentan-1-ol]	5700

— patent publication US12150937B2, “NLRP3 modulators” (INNATE TUMOR IMMUNITY, INC., priority 2019, dated 2024)
